Data on four molecules can be found in patent US9233107B2, “Compositions and methods for the treatment of progressive multifocal leukoencephalopathy (PML)” (Biogen MA Inc., priority 2007, dated 2016).

One data set deals with JCV strain Mad-4. Put plainly: JCV strain Mad-4 infection of SVG-A cells. The data set is classed as cell-based, JC polyomavirus (JCV). The note with it: 5 independent experiments.
The conditions of data set [1]: human, in vivo. From the text: The published literature was reviewed for information on pharmacokinetics and brain distribution of these drugs in humans and in animal models. Since JC virus uncontrollably replicates in the oligodendrocytes and astrocytes of the effected individuals during PML but not all drugs are capable of crossing blood brain barrier it would be advantageous for any potential PML therapy if the drug candidate is capable of achieving efficacious concentration in the brain.

The test system of another data set is Mad1/SVEΔ JCV. Put plainly: JCV infection of primary human fetal astrocytes. Type of data set: cell-based, JC polyomavirus (JCV). As to the method:
CO2 incubator. […] The culture media is used for the infection.
FIG. 5A illustrates SVG-A cells with Mad1/SVEΔ JCV (n=12) virus. FIG. 5B illustrates primary human fetal astrocytes with Mad1/SVEΔ JCV.
Since during PML many cells are already infected with JC virus, in some embodiments a drug candidate for treatment of PML may be selected as one that can inhibit viral life cycle in already infected cells. […] In FIG. 7 various concentration of the drug were added to the culture of primary human fetal astrocytes infected with JC virus at the same time as virus (circles; T=0), 3 hours after virus addition (squires; T=3 h), or 24 hours after (triangles; T=24 h). Ten days after infection with the virus cells were fixed and number of virally infected cells was enumerated. Results of a representative experiment out of 4 different experiments with primary astrocytes or SVG-A cells are shown.

For data set [2] the following is noted: published PK data, cited from earlier work.
Another data set deals with SVG-A cells. Put plainly: Total cell number (DAPI+ events) / cytotoxicity in the JCV infectivity assay. The note with it: for inhibition at 10 µM: Homo sapiens, SVG-A, read-out: % Inhibition total Cell Number @10 uM. Here is the method:
(§1) SV40 transformed glial cells were seeded in 10% FBS media. The cells were seeded at 2000 cells per well in 75 μl of media per well. On day 2, the media was removed and replaced by 35 μl of a 1× concentrated drug aliquot combined with a 100× diluted JCV Turbo aliquot in 35 μl of 2% FBS media (JCV Turbo is a hybrid Mad-1/SVEΔ virus constructed by insertion of the regulatory region of SV40 into the regulatory region of the Mad-1 strain of JCV (Mad-1/SVE), Vacante et al., Virology 1989, 170: 353-361). The cells were incubated for an hour, after which another 65 uL aliquot of 1× concentrated drug in 2% FBS was added. On day 5 the cells were stained with DAPI (for total cell number) and with a mouse monoclonal antibody against SV40 VP1, which cross reacts with the JCV VP1 protein. […] The information is tabulated as % inhibition (as measured by the number and percentage of JCV positive cells).
(§2) JCV Infectivity Assay: SVG-A cells were seeded at 2,000 cells/well/0.075 ml of culture media in 96 flat-bottom well plate (Corning, N.Y.). The next day compounds were prepared in assay medium (2% heat-inactivated fetal bovine serum, 4 mM L-glutamine, 1×MEM). A master viral plate was prepared by mixing equal volumes of [2×] compound and [2×] diluted virus for the final 1× concentration of the compound and the virus. The plate containing cells was gently inverted and shaken to remove media. From the master plate, 0.035 ml compound/virus was added to designated wells. The cells were incubated with the compound/virus mixture for 60 minutes in a humidified 37° C. CO2 incubator. At that time final concentration of the drug in media was added to designated wells to bring the final volume up to 0.1 ml/well. The plates were incubated for an additional three days, the cells were then washed once with 1×PBS, and fixed in 2% paraformaldehyde/1×PBS for 30 minutes at room temperature. The fixative was removed and the cells were solubilized with 0.5% Triton X100 in PBS for an additional 30 minutes. Infection by Mad-1/SVEΔ virus was visualized by staining with PAB597, a monoclonal antibody against the major capsid protein VP1, the cells were incubated with 0.05 ml of PAB597 (2 μg/ml in 1×PBS) for 60 minutes at 37° C. Following a wash step with 1×PBS, primary antibody was detected with an Alexa-Fluor 488-labeled goat anti-mouse secondary antibody at 1:100 dilution in 1×PBS, cells were counterstained with DAPI at 1 μg/ml (0.05 ml/well) for 30 minutes at 37° C. Cells were washed with 1×PBS and 0.1 ml 1×PBS was added to cells. Field images of each well were acquired and analyzed using the Cellomics ArrayScan (Thermo Scientific Inc, Waltham, Mass.) using the Target Activation software. […] The cells are seeded at 4,000 cells/well/0.075 ml of culture media in 96 flat-bottom well plate (Corning). The culture media is used for the infection. The length of the infection is six to ten days (instead of the three days for SVG-A cells).
(§3) The primary assay employed an SVG-A cell line and JCV Mad1/SVEΔ viral strain.

The subject of another data set is JCV DNA replication. Put plainly: JCV DNA replication by qPCR (TAg probe) in SVG-A cells. Type of data set: cell-based, JC polyomavirus (JCV). The conditions noted are these: 3 days after infection, compared with infection rate inhibition. For orientation: In qPCR the cycle at which signal appears reflects the starting amount.
The test system of another data set is JCV strain Mad1/SVEΔ. The data set can be described thus: microbe, parasite or virus in culture. The data set is classed as cell-based, JC polyomavirus (JCV). The note with it: for inhibition at 10 µM / IC50: JC polyomavirus. As to the method:
as §1, §2
Calculations: The rate of JCV infection was calculated by normalizing the number of JCV infected cells by the total number of nucleated cells as % JCV^+ cells=((total # VP1^+ cells)/(total # DAPI^+ cells))*100%. The % of viral inhibition by a compound was calculated using a JCV infection rate instead of using total number of JCV infected cells (e.g., VP1^+ cells).

The nature of another data set: in vitro. The conditions noted are these: human. Here is the method:
as §1, §2, §3

The conditions of data set [3]: # animal data; published PK data; cited from earlier work.
The mark [4] stands for this setting: Glial cell, read-out: % Inhibition (total #JCV+) @10 uM.
[5] abbreviates: SVG-A, read-out: % Inhibition (% JCV+) @10 uM.

SMILES strings stand for the structures. Like-named read-outs stand apart in the source and are kept apart here.

A word on the Cmax: it is the maximum level reached in the sampled fluid or tissue. The term inhibition denotes the relative decrease from the control value, in per cent. For `OC(c1cc(C(F)(F)F)nc2c(C(F)(F)F)cccc12)C1CCCCN1` (racemic) [MEFLOQUINE, [2,8-bis(trifluoromethyl)quinolin-4-yl]-piperidin-2-ylmethanol], the “inhibition of Mad4 infection of SVG-A cells, in words” value in the data set with JCV strain Mad-4 was “the same efficacy as Mad1/SVEΔ infection”. In data set [1], the “Brain concentration, approximated” value fell in the range of 35 to 50 µM. Further, the “inhibition of JCV infection of primary human fetal astrocytes, in words” value in the data set with Mad1/SVEΔ JCV (compared with SVG-A cells) is listed as “essentially the same efficacy as it inhibits viral infection in SVG-A cells”. Moreover, the “inhibition of cell infection when added 3 or 24 hours post infection, in words” value in the data set with Mad1/SVEΔ JCV (primary human fetal astrocytes, read ten days after infection) is “just as effective at inhibiting cell infection as it was when added to the cells together with the virus”. Besides, in data set [2] (read-out: plasma Cmax), the Cmax is 6 µM. For the same molecule, the inhibition at 10 µM is 5% with SVG-A cells, 66% in the data set on JCV strain Mad1/SVEΔ (setting [4]) and 64% in the data set with JCV strain Mad1/SVEΔ (setting [5]). Besides, in the data set on SVG-A cells (at the drug concentrations of the dose response curves), the “Inhibition of total cell numbers (DAPI+ events)” value is on record as “less than 20%”. Moreover, the CC50 in the data set on SVG-A cells (human, 3 days) turned out to be 16.1 µM. The “percent of JCV DNA inhibition, in words” value in the data set with JCV DNA replication is recorded as “almost overlaps the percent of infection rate inhibition”. Besides, the “anti-JCV activity in presence of cerebrospinal fluid (CSF), in words” value in the data set with JCV strain Mad1/SVEΔ (FIG. 10) is recorded as “not inhibited by cerebrospinal fluid (CSF)”. Besides, the IC50 was 4 µM in the data set on JCV strain Mad1/SVEΔ (SVG-A) and 3.9 ± 2.1 µM with JCV strain Mad1/SVEΔ (SVG-A, read-out: IC50 (in vitro efficacious concentration)).
`Cc1c(Nc2ncccc2C(=O)O)cccc1C(F)(F)F` [FLUNIXIN MEGLUMINE]: the inhibition at 10 µM is -4% in the data set with SVG-A cells, 30% in the data set on JCV strain Mad1/SVEΔ (setting [4]) and 33% with JCV strain Mad1/SVEΔ (setting [5]). This molecule showed a CC50 in the data set “in vitro” of 47.7 µM. The molecule also registered an IC50 in the data set with JCV strain Mad1/SVEΔ (SVG-A) of 16.6 µM.
For `Cc1cccc(Nc2ccccc2C(=O)O)c1C` [MEFENAMIC ACID], the Brain in data set [3] is 0.8 µg/mL. The “plasma Cmax” value in [2] was 10000 to 20000 ng/mL. In addition, the inhibition at 10 µM amounted to 0% with SVG-A cells, 29% in the data set on JCV strain Mad1/SVEΔ (setting [4]) and 29% with JCV strain Mad1/SVEΔ (setting [5]). In addition, the IC50 in the data set with JCV strain Mad1/SVEΔ (SVG-A) came to 10.9 µM.
In the case of `Cc1nccc2c1[nH]c1ccccc12` [HARMANE], the inhibition at 10 µM in the data set with SVG-A cells was determined as 4%; in the data set with JCV strain Mad1/SVEΔ (setting [4]), 24%; in the data set with JCV strain Mad1/SVEΔ (setting [5]), 22%. Further, the CC50 in the data set “in vitro” was > 40 µM. The molecule also displayed an IC50 with JCV strain Mad1/SVEΔ (SVG-A) of 14.4 µM.
